Experimental data published in ChEMBL document CHEMBL1287713, “Discovery and selectivity-profiling of 4-benzylamino 1-aza-9-oxafluorene derivatives as lead structures for IGF-1R inhibitors” (Bioorg Med Chem Lett, 2010).
One block for each compound: values may come before it.

How the values were obtained:
[1] = target: Insulin-like growth factor 1 receptor (Homo sapiens, UniProt P08069); assay: Inhibition of IGF1R
[2] = target: Epidermal growth factor receptor (Homo sapiens, UniProt P00533); assay: Inhibition of EGFR
Sequence of Epidermal growth factor receptor (P00533 whole entry): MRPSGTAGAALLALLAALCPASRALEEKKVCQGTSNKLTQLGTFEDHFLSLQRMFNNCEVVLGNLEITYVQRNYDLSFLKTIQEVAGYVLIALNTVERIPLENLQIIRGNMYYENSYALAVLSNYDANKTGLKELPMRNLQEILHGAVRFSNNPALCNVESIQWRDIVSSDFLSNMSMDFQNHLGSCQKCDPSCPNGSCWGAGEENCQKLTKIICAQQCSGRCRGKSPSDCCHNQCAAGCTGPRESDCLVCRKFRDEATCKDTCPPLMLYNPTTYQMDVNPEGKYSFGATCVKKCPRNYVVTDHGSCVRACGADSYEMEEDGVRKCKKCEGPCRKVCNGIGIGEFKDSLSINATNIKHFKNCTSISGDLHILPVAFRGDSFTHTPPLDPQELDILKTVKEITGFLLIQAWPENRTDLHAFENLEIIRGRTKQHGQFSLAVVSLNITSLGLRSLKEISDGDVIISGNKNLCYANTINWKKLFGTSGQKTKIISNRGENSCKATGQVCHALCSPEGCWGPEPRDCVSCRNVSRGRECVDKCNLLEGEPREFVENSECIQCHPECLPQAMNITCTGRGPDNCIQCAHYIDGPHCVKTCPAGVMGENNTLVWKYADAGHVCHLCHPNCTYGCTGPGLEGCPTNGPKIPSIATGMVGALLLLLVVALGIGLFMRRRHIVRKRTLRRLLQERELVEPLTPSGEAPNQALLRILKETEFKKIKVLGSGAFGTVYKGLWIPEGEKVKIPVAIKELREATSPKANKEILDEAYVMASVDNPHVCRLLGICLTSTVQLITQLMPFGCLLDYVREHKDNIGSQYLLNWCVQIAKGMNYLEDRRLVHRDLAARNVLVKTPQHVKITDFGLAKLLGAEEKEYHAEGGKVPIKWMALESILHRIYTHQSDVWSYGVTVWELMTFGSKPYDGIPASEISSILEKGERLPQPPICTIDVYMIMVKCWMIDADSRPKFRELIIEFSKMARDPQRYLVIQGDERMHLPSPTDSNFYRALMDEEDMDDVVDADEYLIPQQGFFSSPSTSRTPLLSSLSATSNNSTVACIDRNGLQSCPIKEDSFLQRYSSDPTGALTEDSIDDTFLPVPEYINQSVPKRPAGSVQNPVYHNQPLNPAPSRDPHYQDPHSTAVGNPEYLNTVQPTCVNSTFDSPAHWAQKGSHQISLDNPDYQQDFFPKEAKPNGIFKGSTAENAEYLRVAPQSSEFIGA

[3] = target: Vascular endothelial growth factor receptor 3 (Homo sapiens, UniProt P35916); assay: Inhibition of VEGFR3
[4] = target: Vascular endothelial growth factor receptor 2 (Homo sapiens, UniProt P35968); assay: Inhibition of VEGFR2
Sequence of Vascular endothelial growth factor receptor 2 (P35968 whole entry): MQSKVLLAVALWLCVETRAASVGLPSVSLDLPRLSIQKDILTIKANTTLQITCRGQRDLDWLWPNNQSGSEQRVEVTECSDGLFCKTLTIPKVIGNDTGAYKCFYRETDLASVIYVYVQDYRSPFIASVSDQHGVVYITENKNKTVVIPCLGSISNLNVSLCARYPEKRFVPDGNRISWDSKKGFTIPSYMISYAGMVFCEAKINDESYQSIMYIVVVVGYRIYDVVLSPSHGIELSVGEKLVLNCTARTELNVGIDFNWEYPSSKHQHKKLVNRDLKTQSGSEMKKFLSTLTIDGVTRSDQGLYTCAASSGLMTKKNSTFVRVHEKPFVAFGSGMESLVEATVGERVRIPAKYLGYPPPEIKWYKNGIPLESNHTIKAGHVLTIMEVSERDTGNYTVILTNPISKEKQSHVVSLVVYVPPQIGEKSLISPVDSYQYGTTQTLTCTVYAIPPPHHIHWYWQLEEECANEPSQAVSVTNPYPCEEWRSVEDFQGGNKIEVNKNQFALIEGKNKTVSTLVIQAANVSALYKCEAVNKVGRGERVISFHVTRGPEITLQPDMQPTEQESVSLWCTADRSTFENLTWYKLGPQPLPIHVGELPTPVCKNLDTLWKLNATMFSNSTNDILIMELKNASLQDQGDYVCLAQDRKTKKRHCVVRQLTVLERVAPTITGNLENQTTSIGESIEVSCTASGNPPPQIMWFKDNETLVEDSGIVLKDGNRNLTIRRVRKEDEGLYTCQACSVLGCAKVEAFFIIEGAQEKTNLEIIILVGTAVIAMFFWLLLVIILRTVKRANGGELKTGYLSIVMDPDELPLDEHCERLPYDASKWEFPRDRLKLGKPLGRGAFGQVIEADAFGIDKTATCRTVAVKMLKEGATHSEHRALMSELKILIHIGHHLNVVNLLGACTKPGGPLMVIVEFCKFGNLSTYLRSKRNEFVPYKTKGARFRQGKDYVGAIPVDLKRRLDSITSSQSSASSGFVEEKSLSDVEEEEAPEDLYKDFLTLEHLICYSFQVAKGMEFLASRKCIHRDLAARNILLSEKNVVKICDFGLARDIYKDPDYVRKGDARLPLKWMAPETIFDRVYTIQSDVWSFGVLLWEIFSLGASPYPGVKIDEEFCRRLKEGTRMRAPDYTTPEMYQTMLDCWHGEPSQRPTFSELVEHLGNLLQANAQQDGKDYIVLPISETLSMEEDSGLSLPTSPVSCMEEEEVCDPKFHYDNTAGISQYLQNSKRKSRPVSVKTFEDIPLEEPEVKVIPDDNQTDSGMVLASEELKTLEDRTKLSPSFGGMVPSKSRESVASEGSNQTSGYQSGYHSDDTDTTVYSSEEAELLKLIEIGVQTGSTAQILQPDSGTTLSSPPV

[5] = target: Tyrosine-protein kinase ABL1 (Homo sapiens, UniProt P00519); assay: Inhibition of human ABL1
[6] = target: Tyrosine-protein kinase ABL2 (Homo sapiens, UniProt P42684); assay: Inhibition of human ABL2
Focal adhesion kinase 1 = Focal adhesion kinase 1 (Homo sapiens, UniProt Q05397); assay: Inhibition of human FAK
Insulin receptor = Insulin receptor (Homo sapiens, UniProt P06213); assay: Inhibition of human InsR
[7] = target: Insulin receptor-related protein (Homo sapiens, UniProt P14616); assay: Inhibition of human InsRR
Angiopoietin-1 receptor = Angiopoietin-1 receptor (Homo sapiens, UniProt Q02763); assay: Inhibition of human TIE2
[8] = target: Interleukin-1 receptor-associated kinase 1 (Homo sapiens, UniProt P51617); assay: Inhibition of human IRAK1
LIM domain kinase 1 = LIM domain kinase 1 (Homo sapiens, UniProt P53667); assay: Inhibition of human LIMK1
[9] = target: Cyclin-dependent kinase 4/cyclin D1 (Homo sapiens, UniProt P11802); assay: Inhibition of human CDK4/Cyclin D1; assay type: protein-complex assay
CDK6/cyclin D1 = CDK6/cyclin D1 (Homo sapiens, UniProt Q00534); assay: Inhibition of human CDK6/Cyclin D1; assay type: protein-complex assay
[10] = target: Cyclin-dependent kinase 5/CDK5 activator 1 (Homo sapiens, UniProt Q00535); assay: Inhibition of human CDK5/p25; assay type: protein-complex assay
[11] = target: Dual specificity protein kinase CLK1 (Homo sapiens, UniProt P49759); assay: Inhibition of human CLK1
[12] = target: Dual specificity tyrosine-phosphorylation-regulated kinase 1A (Homo sapiens, UniProt Q13627); assay: Inhibition of human DYRK1A
[13] = target: Homeodomain-interacting protein kinase 1 (Homo sapiens, UniProt Q86Z02); assay: Inhibition of human HIPK1
Aurora kinase A = Aurora kinase A (Homo sapiens, UniProt O14965); assay: Inhibition of human Aurora A
Aurora kinase C = Aurora kinase C (Homo sapiens, UniProt Q9UQB9); assay: Inhibition of human Aurora C
[14] = target: Protein kinase C gamma type (Homo sapiens, UniProt P05129); assay: Inhibition of human PKC-gamma
[15] = target: Protein kinase C iota type (Homo sapiens, UniProt P41743); assay: Inhibition of human PKC-iota
Sequence of Protein kinase C iota type (P41743 whole entry): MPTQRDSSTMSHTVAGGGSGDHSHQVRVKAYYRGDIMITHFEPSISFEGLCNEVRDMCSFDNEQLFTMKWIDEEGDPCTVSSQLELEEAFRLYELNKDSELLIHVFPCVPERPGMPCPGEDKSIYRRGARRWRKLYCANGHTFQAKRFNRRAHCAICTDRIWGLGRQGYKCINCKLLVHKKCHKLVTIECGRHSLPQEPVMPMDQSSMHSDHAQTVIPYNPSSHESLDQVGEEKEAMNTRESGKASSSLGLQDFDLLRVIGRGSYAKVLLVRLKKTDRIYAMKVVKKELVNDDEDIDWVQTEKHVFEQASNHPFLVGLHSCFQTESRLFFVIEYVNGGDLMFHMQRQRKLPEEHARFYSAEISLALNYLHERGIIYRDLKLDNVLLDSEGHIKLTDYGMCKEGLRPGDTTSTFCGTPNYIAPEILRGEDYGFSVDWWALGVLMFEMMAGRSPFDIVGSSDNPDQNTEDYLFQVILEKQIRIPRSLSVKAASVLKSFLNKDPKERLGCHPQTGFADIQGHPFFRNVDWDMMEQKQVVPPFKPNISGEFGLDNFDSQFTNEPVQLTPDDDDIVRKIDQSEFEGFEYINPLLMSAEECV

[16] = target: Mitogen-activated protein kinase 3 (Homo sapiens, UniProt P27361); assay: Inhibition of human ERK1
[17] = target: Mitogen-activated protein kinase 14 (Homo sapiens, UniProt Q16539); assay: Inhibition of human p38-alpha
Misshapen-like kinase 1 = Misshapen-like kinase 1 (Homo sapiens, UniProt Q8N4C8); assay: Inhibition of human INK1
[18] = target: Serine/threonine-protein kinase VRK1 (Homo sapiens, UniProt Q99986); assay: Inhibition of human VRK1
Wee1-like protein kinase = Wee1-like protein kinase (Homo sapiens, UniProt P30291); assay: Inhibition of human WEE1
[19] = target: Serine/threonine-protein kinase Nek3 (Homo sapiens, UniProt P51956); assay: Inhibition of human Nek3
[20] = target: Serine/threonine-protein kinase PLK1 (Homo sapiens, UniProt P53350); assay: Inhibition of human PLK1
Sequence of Serine/threonine-protein kinase PLK1 (P53350 whole entry): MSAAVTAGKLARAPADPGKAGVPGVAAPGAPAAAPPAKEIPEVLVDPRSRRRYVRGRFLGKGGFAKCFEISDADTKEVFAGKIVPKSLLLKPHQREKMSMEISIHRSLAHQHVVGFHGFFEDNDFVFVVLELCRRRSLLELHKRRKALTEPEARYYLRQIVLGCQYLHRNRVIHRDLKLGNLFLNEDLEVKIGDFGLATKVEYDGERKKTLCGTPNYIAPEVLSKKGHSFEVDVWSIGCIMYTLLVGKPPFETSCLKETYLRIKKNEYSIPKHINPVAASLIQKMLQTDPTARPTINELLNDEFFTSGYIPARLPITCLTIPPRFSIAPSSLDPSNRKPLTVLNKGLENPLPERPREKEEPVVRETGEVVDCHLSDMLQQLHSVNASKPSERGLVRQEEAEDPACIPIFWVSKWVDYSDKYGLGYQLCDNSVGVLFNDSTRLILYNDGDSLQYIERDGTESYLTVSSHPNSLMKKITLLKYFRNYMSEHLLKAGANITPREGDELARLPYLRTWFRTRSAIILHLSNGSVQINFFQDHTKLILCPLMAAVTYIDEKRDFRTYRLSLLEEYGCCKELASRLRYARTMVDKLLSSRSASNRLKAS

[21] = Growth inhibition of human NCI60 cells by SBR assay; assay type: functional
[22] = Cytotoxicity against human NCI60 cells by SBR assay; assay type: functional

Sequence of Insulin-like growth factor 1 receptor (P08069 31-736 limits assumed): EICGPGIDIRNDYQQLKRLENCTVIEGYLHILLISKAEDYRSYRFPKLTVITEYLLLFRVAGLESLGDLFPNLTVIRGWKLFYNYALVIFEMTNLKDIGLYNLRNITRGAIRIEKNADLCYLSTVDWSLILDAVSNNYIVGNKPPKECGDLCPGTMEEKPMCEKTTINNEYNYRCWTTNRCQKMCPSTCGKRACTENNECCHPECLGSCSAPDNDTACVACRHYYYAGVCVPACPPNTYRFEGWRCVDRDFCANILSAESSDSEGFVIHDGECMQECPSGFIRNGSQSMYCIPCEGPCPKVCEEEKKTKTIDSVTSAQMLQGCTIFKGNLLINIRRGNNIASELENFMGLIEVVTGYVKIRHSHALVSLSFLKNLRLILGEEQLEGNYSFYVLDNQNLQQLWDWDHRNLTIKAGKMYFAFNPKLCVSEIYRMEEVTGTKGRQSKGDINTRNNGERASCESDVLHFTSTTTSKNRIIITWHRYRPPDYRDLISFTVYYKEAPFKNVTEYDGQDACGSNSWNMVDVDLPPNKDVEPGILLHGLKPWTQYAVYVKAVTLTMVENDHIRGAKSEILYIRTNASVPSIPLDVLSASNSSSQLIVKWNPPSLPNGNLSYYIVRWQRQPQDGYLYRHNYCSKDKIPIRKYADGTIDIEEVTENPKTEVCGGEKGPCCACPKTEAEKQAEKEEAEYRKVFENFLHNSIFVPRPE
Sequence of Insulin-like growth factor 1 receptor (P08069 741-1367 limits assumed): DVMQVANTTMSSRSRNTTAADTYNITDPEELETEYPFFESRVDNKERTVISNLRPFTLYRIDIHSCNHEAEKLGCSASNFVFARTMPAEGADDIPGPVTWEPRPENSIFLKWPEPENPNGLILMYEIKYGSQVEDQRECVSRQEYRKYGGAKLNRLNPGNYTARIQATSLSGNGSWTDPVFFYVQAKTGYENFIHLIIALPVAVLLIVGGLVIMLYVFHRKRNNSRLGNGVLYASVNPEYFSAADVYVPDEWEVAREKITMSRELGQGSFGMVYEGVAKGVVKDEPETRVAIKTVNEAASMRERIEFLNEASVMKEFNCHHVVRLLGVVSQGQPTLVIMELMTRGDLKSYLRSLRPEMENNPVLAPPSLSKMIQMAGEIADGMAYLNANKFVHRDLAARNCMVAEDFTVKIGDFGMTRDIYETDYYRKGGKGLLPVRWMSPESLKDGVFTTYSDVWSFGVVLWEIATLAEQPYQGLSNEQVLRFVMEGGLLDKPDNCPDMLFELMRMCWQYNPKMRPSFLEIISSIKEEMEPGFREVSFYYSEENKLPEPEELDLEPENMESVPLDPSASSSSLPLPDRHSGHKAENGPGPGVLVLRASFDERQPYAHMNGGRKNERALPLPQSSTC

Ki [1]: 0.37 µM
Ki [2]: 0.59 µM
Ki [3]: 1.09 µM
Ki [4]: 0.47 µM
Compound: c1ccc(CNc2ccnc3oc4ccccc4c23)cc1

Ki [1]: 2.11 µM
Ki [2]: 3.45 µM
Ki [3]: 9.39 µM
Ki [4]: 2.01 µM
Compound: c1ccc(CCNc2ccnc3oc4ccccc4c23)cc1

Ki [1]: 0.57 µM
Ki [2]: 0.68 µM
Ki [3]: 1.09 µM
Ki [4]: 0.3 µM
Compound: c1ccc2c(CNc3ccnc4oc5ccccc5c34)cccc2c1

Ki [1]: 0.15 µM
Ki [3]: > 1000 µM
Ki [4]: > 1000 µM
IC50 [5]: 392 µM
Ki [6]: > 1000 µM
IC50 (Focal adhesion kinase 1): 194 µM
IC50 (Insulin receptor): 622 µM
IC50 [7]: 182 µM
Ki (Angiopoietin-1 receptor): > 1000 µM
Ki [8]: > 1000 µM
IC50 (LIM domain kinase 1): 759 µM
IC50 [9]: 376 µM
IC50 (CDK6/cyclin D1): 129 µM
Ki [10]: > 1000 µM
Ki [11]: > 1000 µM
Ki [12]: > 1000 µM
Ki [13]: > 1000 µM
Ki (Aurora kinase A): > 1000 µM
Ki (Aurora kinase C): > 1000 µM
Ki [14]: > 1000 µM
Ki [15]: > 1000 µM
Ki [16]: > 1000 µM
Ki [17]: > 1000 µM
Ki (Misshapen-like kinase 1): > 1000 µM
IC50 [18]: 129 µM
Ki (Wee1-like protein kinase): > 1000 µM
Ki [19]: > 1000 µM
IC50 [20]: 271 µM
Compound: COc1ccc(CNc2ccnc3oc4ccccc4c23)cc1

Ki [1]: 0.58 µM
Ki [2]: > 1000 µM
Ki [3]: > 1000 µM
Ki [4]: > 1000 µM
Compound: Clc1cccc(CNc2ccnc3oc4ccccc4c23)c1

Compound: Clc1ccc(CNc2ccnc3oc4ccccc4c23)cc1
Ki [1]: 0.11 µM
Ki [2]: 0.5 µM
Ki [3]: 0.68 µM
Ki [4]: 0.18 µM
GI50 [21]: 33.9 µM
LC50 [22]: > 100 µM

Ki [1]: > 1000 µM
Ki [2]: > 1000 µM
Ki [3]: > 1000 µM
Ki [4]: > 1000 µM
Compound: c1cncc(CNc2ccnc3oc4ccccc4c23)c1

Compound: N[C@@H](Cc1ccc(N(CCCl)CCCl)cc1)C(=O)O
GI50 [21]: 33.1 µM

Compound: COc1cc([C@@H]2c3cc4c(cc3[C@@H](O[C@@H]3O[C@@H]5CO[C@@H](C)O[C@H]5[C@H](O)[C@H]3O)[C@H]3COC(=O)[C@H]23)OCO4)cc(OC)c1O [ETOPOSIDE]
GI50 [21]: 38.9 µM

Compound: CCc1c2c(nc3ccc(OC(=O)N4CCC(N5CCCCC5)CC4)cc13)-c1cc3c(c(=O)n1C2)COC(=O)[C@]3(O)CC [IRINOTECAN]
GI50 [21]: 14.1 µM
